Assay results as given in paper PMC9266350, “Searching for a Paradigm Shift in Auger-Electron Cancer Therapy with Tumor-Specific Radiopeptides Targeting the Mitochondria and/or the Cell Nucleus” (International Journal of Molecular Sciences, 2022).
Where a SMILES comes first, the peptide text is derived from it. Where no end group is shown, it is not given here. The star is where a group is joined. X1 = Cc1nn(CCN(CCN)CCCC(=O)NCCC[n+]2c3cc(N(C)C)ccc3cc3ccc(N(C)C)cc32)c(C)c1CC(=O)*; pyrazolyl‑diamine chelator carrying TPP = not defined here

Columns and labels:
[1] = system: PC3 cells; assay: Clonogenic assay; assay type: cell-based, human; details: highest concentration 10^−7 M (range 10^−10–10^−7 M), 24 h at 37 °C
Procedure: PC3 cells were seeded at a density of 50000 cells per well in a 24 well-plate and allowed to attach overnight. […] Immediately, after incubation, cells were seeded out in appropriate dilution to form colonies, in 2 weeks, with at least 50 cells. Colonies were fixed with methanol: glacial acetic acid (3:1) and stained with Giemsa (4%).
The Plating Efficiency (PE), ratio of the number of colonies to the number of cells seeded, and the Survival Fraction (SF), number of colonies that arise after treatment of cells, expressed in terms of PE, were obtained following the methodology described in [66], where:(1) PE=number of colonies formed /number of cells seeded×100% (2) SF=number of colonies formed after treatment/number of cells seeded×PE

[2] = system: PC3 cells; assay: Confocal fluorescence microscopy colocalization with MitoTracker; assay type: cell-based, human; details: 1 µM, 30 min with MitoTracker Deep Red FM, fixed
Procedure: To study the intracellular location of uptaken Re-AO-BBN, cells were washed with PBS, incubated with MitoTracker™ Deep Red FM (1:1000, Invitrogen, Bleiswijk, The Netherlands) and Re-AO-BBN (1 µM) in FluoroBrite™ DMEM with high D-glucose for 30 min, fixed with 4% paraformaldehyde (in PBS) at 4 °C for 20 min, washed with PBS, incubated with Hoechst (0.2 µg/mL) for 1 h, washed and left submerged in PBS. Cells were imaged on a Leica TCS SP8 confocal microscope, equipped with a HC Plan Apo 20 × /0.75 dry objective, 405, 488 and 638 nm laser lines, PMT (MitoTracker) and HyD (Hoechst, Re-AO-BBN) detectors. The pinhole was set to 1 airy unit and Nyquist sampling was met in xyz (132 × 132 × 685 nm). Mitochondria accumulation was assessed by the Pearson coefficient between Re-AO-BBN and MitoTracker fluorescence intensities, considering an appropriate threshold.

[3] = target: T1, human GRPR (Homo sapiens, UniProt P30550); assay: Competitive radioligand binding assay against [125I-Tyr4]-BBN; details: PC3 cells, 90 min at 4 °C, one-site model, mean ± SEM of three independent experiments; read-out: IC50, displacement of [125I-Tyr4]-BBN from GRPR
T1 construct: endogenous in cells; host or cells: PC3 human prostate carcinoma cells (intact, attached)
Procedure: The in vitro cell-binding assays were performed with the prostate carcinoma cell line PC3. Briefly, cells were seeded in 24-well plates (150,000 cells per well) and allowed to attach overnight. […] The competition was interrupted by discarding supernatants and washing the cells twice with ice-cold PBS with 0.2% BSA. Cells were then lysed with 1 M NaOH treatment (2 × 0.4 mL, 10 min at 37 °C). Lysates were collected and counted for their radioactivity content in an automated γ–counter (HIDEX AMG, Hidex, Turku, Finland).

[4] = system: PC3 cells; assay: γ-H2AX assay and foci analysis; assay type: cell-based, human; details: 1.85 MBq, 24 h at 37 °C
Procedure: PC3 cells were seeded at a density of 10000 cells per well in an eight-well chamber slide and allowed to attach overnight. […] PC3 cells were washed three times with PBS, and fixed with 4% formaldehyde in PBS for 15 min. After washing with PBS, cells were permeabilized with Triton X-100 (0.5%) at room temperature for 5 min followed by two washing steps with 1% BSA in PBS. Then, cells were incubated with an anti-γ-H2AX primary antibody (mouse anti-γ-H2AX (ser139), Stressgen) at 2 μg/mL for 1 h. After being washed twice with 1% BSA in PBS, cells were incubated with a Texas Red-X-conjugated anti-mouse secondary antibody at […] for 1 h, followed by three washing steps with PBS. Cells were finally mounted in anti-fade mounting media with DAPI (Vectashield H-1200, Vector Laboratories).
Cells were analyzed under 64x magnification. Several high-quality 2D images were randomly collected in each slide and analyzed using the pipeline Speckle Count from the freeware CellProfiler. At least 200 nuclei were analyzed per experiment per dose. Statistical analysis was performed with Origin 7.5 software.

[5] = system: PC3 cells; assay: Mitochondrial ToxGlo assay (cell membrane integrity and cellular ATP levels); details: 2 h at 37 °C, HBSS with galactose and 1% BSA, CCCP 10 μM
Procedure: PC3 cells were seeded at a density of 10,000 cells per well in a 96 well-plate and allowed to attach overnight. […] Cells incubated only with this medium were used as a basal control and cells incubated with CCCP (10 μM) as a positive control for mitochondrial inhibition. After the 2 h, the Mitochondrial Toxglo assay was performed according to the manufacturer’s instructions (Promega). Assays were performed in triplicate.

T1 sequence (P30550 whole entry): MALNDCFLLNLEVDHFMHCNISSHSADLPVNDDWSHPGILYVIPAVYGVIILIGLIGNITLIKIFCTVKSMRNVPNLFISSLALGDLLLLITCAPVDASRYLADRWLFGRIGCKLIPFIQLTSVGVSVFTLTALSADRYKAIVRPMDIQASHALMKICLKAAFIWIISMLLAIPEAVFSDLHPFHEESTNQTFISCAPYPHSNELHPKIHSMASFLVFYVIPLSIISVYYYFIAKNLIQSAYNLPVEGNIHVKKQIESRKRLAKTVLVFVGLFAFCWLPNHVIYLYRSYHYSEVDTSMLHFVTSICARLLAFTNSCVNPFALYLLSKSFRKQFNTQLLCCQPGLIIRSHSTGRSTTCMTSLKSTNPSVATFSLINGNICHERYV

Q: What does the source list for `CSCC[C@H](NC(=O)[C@H](CC(C)C)NC(=O)[C@H](Cc1c[nH]cn1)NC(=O)CNC(=O)[C@@H](NC(=O)[C@H](C)NC(=O)[C@H](Cc1c[nH]c2ccccc12)NC(=O)[C@H](CCC(N)=O)NC(=O)CNC(=O)CNC(=O)CNC(=O)Cc1c(C)nn(CCN(CCN)CCCC(=O)NCCC[n+]2c3cc(N(C)C)ccc3cc3ccc(N(C)C)cc32)c1C)C(C)C)C(N)=O` [Re-AO-BBN] (X1-GGGQWAVGHLM-NH2; C-terminus assumed)?
A: effect on survival of PC3 cells compared with the control [1]: no effect; Pearson's Correlation Coefficient (PCC) of colocalization with Mitotracker dye [2]: 0.31

Q: How did the IC50 [3] turn out when “Re-TPP-BBN: Re(I) congener of 99mTc-TPP-BBN, surrogate of the 99mTc complex ({pyrazolyl‑diamine chelator carrying TPP}-GGGQWAVGHLM; ends and bridges not checked; also: Re(I) complex of the chelator)” was run?
A: 0.38 ± 0.14 nM

Q: With `[O]=[99Tc](=[O])(=[O])[O-]` [^99mTcO4^−] as the molecule, how does the “foci number / DNA damage relative to the control (in words)” value [4] read?
A: did not cause any increase

Q: For cyanide-m-chlorophenylhydrazone [CCCP], which “cell membrane integrity / viability versus control” value ([5]; radiocomplexes 0.74 and 1.85 MBq (loss at the highest activity)) is on record?
A: did not compromise their viability

Q: And the “ATP production / ATP levels versus control cells” value ([5]; radiocomplexes 0.74 and 1.85 MBq)?
A: significantly reduced the ATP production
